Test results reported in patent publication US5646128A, “Methods for treating adenosine kinase related conditions” (priority 1994, dated 1997).
“Also recorded” adds a separate entry of the source. Like-named read-outs stand apart in the source and are kept apart here.

Experiments:
[1] = tested on: plasma leakage in rat skin; assay: Suppression of vascular (plasma) leakage in rat skin, Evans' Blue; assay type: in vivo, Male SA rats; details: for inhibition at 5 mg/kg: Rattus norvegicus, po, 5 mg/kg p.o. 1 hr prior
Protocol: Leakage of plasma into inflamed skin was measured using Evans' Blue (Sigma Chemical Co., St. Louis, Mo.), which binds irreversibly to albumin. Evans' Blue and bovine serum albumin (Sigma) were mixed (20 and 40 mg/mL PBS, respectively) and incubated for 15 min at room temperature in order to form a conjugate. The mixture was then filtered through a 0.45 μm pore syringe filter and immediately used. […] The rats were then briefly anesthetized with halothane and dorsal skin injection sites (up to 4/rat) were stamped with a 12 mm test tube inked with a felt pad. Every site received 100 μl of an inflammatory agent or PBS injected intradermally into the middle of the circular mark. Inflammatory agents included carrageenan (1%) and histamine (10^-3 M) (Sigma). Rats were then returned to their cages. Two hrs later, animals were again anesthetized and 0.5 mL blood was obtained through orbital plexus bleed. Following sacrifice of the rats, the injection sites were excised along the marked lines, and subcutaneous muscle and fat layers were removed from the skin biopsies. Each skin biopsy was weighed and cut in four, and its Evans' Blue content was extracted overnight by incubation in 1 mL N,N-dimethylformamide (Aldrich, Milwaukee, Wis.). The absorbance at 650 nm of plasma samples and skin extracts was read in a plate reader, and the plasma content of each skin piece was calculated and expressed as μl plasma/g tissue.

[2] = Oral bioavailability (statement); assay type: in vivo; details: pro-drug of GP-1-515
[3] = tested on: tumor necrosis factor alpha; details: cited from earlier work
heart = details: in vivo; cited from earlier work
[4] = tested on: perfusate adenosine, isolated rat hearts; details: normoxic, hypoxic, anoxic or ischemic conditions; alone; cited from earlier work
[5] = tested on: adenosine uptake, rat brain slices; details: cited from earlier work
[6] = tested on: adenosine uptake, guinea pig brain slices; details: cited from earlier work
[7] = tested on: dog hearts subjected to ischemia and reperfusion; details: in vivo; cited from earlier work
[8] = mouse, in vivo; cited from earlier work
[9] = cited from earlier work
adenosine kinase = molecular target: T1, adenosine kinase (Bos taurus, UniProt A0AAA9RZ79); assay: Adenosine kinase inhibition in intact cells (capillary endothelial cells from bovine heart); assay type: cell-based; details: 20 μM 2'-deoxycoformycin, 5 μM [3H]adenosine
T1 construct: endogenous in cells; host or cells: capillary endothelial cells from bovine heart
T1 sequence (A0AAA9RZ79 1-362): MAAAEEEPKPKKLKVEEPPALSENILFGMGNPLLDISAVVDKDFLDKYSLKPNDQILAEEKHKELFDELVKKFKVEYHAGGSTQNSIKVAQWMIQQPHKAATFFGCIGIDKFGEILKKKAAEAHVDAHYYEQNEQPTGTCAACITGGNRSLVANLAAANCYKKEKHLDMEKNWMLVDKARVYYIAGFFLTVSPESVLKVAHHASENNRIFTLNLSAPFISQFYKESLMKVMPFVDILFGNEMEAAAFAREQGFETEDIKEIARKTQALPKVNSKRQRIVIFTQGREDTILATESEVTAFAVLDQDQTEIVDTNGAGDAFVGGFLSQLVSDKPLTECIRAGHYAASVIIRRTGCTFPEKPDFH
Protocol: Inhibition of adenosine kinase in intact cells was determined from the amount of incorporation of radioisotope from adenosine into the adenylates (AMP, ADP and ATP) in the presence of adenosine deaminase inhibition. […] The media was then discarded and the cells were treated with 50 μl 0.4M perchloric acid, centrifuged and the supernalants neutralized with 100 μl alanine: freon (1:4).

E. coli LPS endotoxemia [10] = assay: Survival in endotoxemia (E. coli LPS) in mice; assay type: in vivo, Balb/C mice; details: i.v. immediately after 900 ug LPS i.v.; p=0.015
Excerpt: An adenosine kinase inhibitor (GP-1-515) was used to increase endogenous adenosine production in vivo.

E. coli LPS endotoxemia [11] = assay: Prophylactic treatment for endotoxemia in mice; assay type: in vivo, Balb/C mice; details: 5 mg/kg oral, 6 hours before 700 ug LPS i.v.
Protocol: As shown in Example E, intravenous treatment with an adenosine kinase inhibitor improves survival of mice if administered immediately after intravenous injection with LPS. In the following experiments, it was shown that an adenosine kinase inhibitor (GP-1-515) protects animals against endotoxemia if administered prophylactically. In these experiments, 25-30 gram male Balb/C mice received oral GP-1-515 (5 mg/kg in water) or vehicle by gavage. Six hours later, the animals received an intravenous injection of 700 ug of E. coli LPS (Sigma Chemical Co.). In an experiment involving 10 animals per group, 50% of mice in the adenosine kinase inhibitor-treated group survived for 2 days, while none of animals in the vehicle treated group survived for that time period (data not shown).

[12] = tested on: bacterial peritonitis and septic shock; assay: Cecal ligation and puncture, model of chronic sepsis; assay type: in vivo, male CD rats; details: 5 mg/kg orally, 2 hours before
Protocol: Cecal ligation and puncture (CLP) is a model of bacterial peritonitis and septic shock which mimics systemic infections in humans. In these experiments, male CD rats were fasted overnight and treated orally with either GP-1-515 (5 mg/kg) or vehicle by gavage. Two hours later, animals were anesthetized with ether and the anterior abdominal wall was shaved. A midline incision was made and the cecum was exteriorized and ligated with 3-0 silk suture near the ilial-cecal junction without causing bowel obstruction. The cecum was punctured twice on the anti-mesenteric side using a yellow tip disposable pipette tip (Fisher, Tustin, Calif.) and squeezed to ensure patency. The cecum was placed back in the abdominal cavity and the peritoneal wall was closed with 5-0 nylon sutures. The skin was closed with 9 mm stainless steel wound clips. The animals were resuscitated with a subcutaneous injection of 2 mL of sterile saline. No antibiotics were administered.

TNF-α = assay: Inhibition of TNF-alpha production in endotoxemic mice (ELISA); assay type: in vivo, Balb/C mice; details: 0.1 mg/kg i.v., one hour after LPS; p<0.01
Protocol: In these experiments, plasma TNF-α levels were measured in GP-1-515and placebo-treated mice (8 animals per group). Balb/C mice received an intravenous injection of E. coli LPS (900 ug/animal) (Sigma Chemical Co.) followed immediately by a second injection with 0.1 mg/kg of GP-1-515 or vehicle. Some animals were pretreated with an intraperitoneal injection of the adenosine receptor antagonist 8SPT. One hour later, blood was obtained from ether anesthetized animals by intracardiac puncture using a heparinized syringe. Blood samples were chilled on ice, centrifuged at 5000 rpm in a microcentrifuge for 5 minutes, and the plasma removed. TNF-α levels in the plasma were assayed by ELISA according to the instructions provided by the manufacturer (Endogen, Cambridge, Mass.).

[13] = tested on: E. Coli 0111:B4 lipopolysaccharide (LPS) endotoxic shock; assay: Endotoxic shock in pigs; assay type: in vivo, Yucatan miniature pigs
Protocol: Male or female Yucatan miniature pigs (20-27 kg) were pre-medicated with xylazine ([…] i.m.), ketamine (150 mg i.m.), and atropine (1 mg i.m.). The animals were intubated, administered 10 mg/kg of pentobarbital intravenously, and covered with a blanket to maintain normal body temperature. A pentobarbital infusion was maintained at 10 mg/kg/hr. The pigs were ventilated with 30% O2 using a Harvard large animal respirator at 7-10 breaths/rain in order to achieve a blood pH of approximately 7.45-7.50. A bolus of 4 mg of Pancuronium bromide was given to inhibit muscle contraction in response to the cautery and the animals were hydrated with a continuous infusion of saline at 60-80 cc/hr. A left thoracotomy was performed in the third intercostal space and the pulmonary artery, carotid artery, external jugular vein were cannulated with PE-190 tubing. A line was also placed in the left atrium and a catheter tipped micromanometer was inserted into the left ventricle via an apical stab wound. A transit-time flow probe was placed on the pulmonary artery. Pressure readings were obtained using a Statham pressure transducer connected to a Gould strip chart recorder. Heparinized arterial blood samples for blood gases were obtained through the carotid arterial catheter. Drugs and endotoxin were infused through the external jugular catheter.
After the animals had stabilized, a continuous infusion of GP-1-515 (0.3 μg/kg/m in) was started, followed 30 min later by a slow infusion of E. Coli 0111:B4 lipopolysaccharide (LPS) (Sigma Chemical Co., St. Louis, Mo.) over 30 min. The animals continued to receive GP-1-515 or vehicle for 4 additional hours and were ventilated with a fixed tidal volume and FiO2. […] Control animals developed severe hypoxemia, hypercapnia, and acidosis. […] 4/7pigs in the control group died (several of whom had frank pulmonary edema) compared to 1/7in the GP-1-515-treated group. Upon completion of the study, the surviving animals were euthanized with an intravenous bolus of pentobarbital.

bacterial translocation = assay: Burn model, bacterial translocation to mesenteric lymph nodes; assay type: in vivo, Female CF-1 mice
Protocol: Female CF-1, non-Swiss, non-albino mice (age 8-12 weeks) (Charles River Laboratory, Wilmington, Mass.) were anesthetized with a 1-2 minute exposure to methoxyflurane (Abbott Labs, Chicago, Ill.). The shaved dorsum was burned by a 6-second exposure to steam using a 3.5×5.5 cm template to produce a 32% total body surface area full thickness burn. Animals were resuscitated with 1 mL of normal saline i.p., followed by 0.1 mg/kg i.p./injection of GP-1-515 or an equal amount of vehicle. Animals also received an i.p. injection of morphine sulfate (15 mg/kg). The animals were administered a second injection of GP-1-515 (0.1 mg/kg) or vehicle i.p. 6 hours after the burn. Animals were fasted for 4 hours before the burn and for 24 hours thereafter. After 48 hours, the animals were sacrificed by cervical dislocation and the abdomen was opened using aseptic techniques. Mesenteric lymph nodes were harvested and weighed in sterile bags, homogenized in Trypticate Soy Broth (BBL, Becton Dickinson Microbiology System, Cockeysville, Md.). Ser. dilutions of the homogenate were plated on […] plates (BBL, Becton Dickinson) at 37° C. and the presence or absence of bacterial colonies was determined 48 hours later. In experiments involving approximately 120 animals, 52% of control mice had positive mesenteric lymph node cultures compared to 32% of GP-1-515-treated mice (p<0.05).

With `CC(=O)O[C@@H]1[C@H](OC(C)=O)[C@@H](CN)O[C@H]1n1nc(Br)c2c(N)ncnc21` [GP-1-792, 4-amino-1-(5-amino-5-deoxy-2,3-di-O-acetyl-1-β-D-ribofuranosyl)-3-bromopyrazolo[3,4-d]pyrimidine] the “suppression of carrageenan and histamine induced plasma leakage” value ([1]; FIG. 13 legend) was “suppression of carrageenan and histamine induced plasma leakage”, the inhibition at 5 mg/kg ([1]; carrageenan (1%), read-out: inhibition of carrageenan-induced plasma leakage) was 47 ± 5% and the inhibition at 5 mg/kg ([1]; histamine (10^-3 M), read-out: inhibition of histamine-induced plasma leakage) was 51 ± 5%. The “oral bioavailability” value [2] was “orally bioavailable”.

For `Nc1ncnc2c1ncn2[C@@H]1O[C@H](CO)[C@@H](O)[C@H]1O` [Adenosine, adenosine], the “in vitro production of tumor necrosis factor alpha” value [3] is given as “inhibit in vitro production”, the coronary steal (heart) is given as “cause coronary steal” and the “inotropic, chronotropic and dromotropic effects” value (heart) is given as “negative inotropic, chronotropic and dromotropic effects”.

For `Nc1ncnc2c1c(I)cn2[C@@H]1O[C@H](CO)[C@@H](O)[C@H]1O` [GP-1-202, 5-iodotubercidin, reference compound], the “perfusate adenosine concentration, isolated rat hearts” value [4] is listed as “no increase in perfusate adenosine concentration”, the “adenosine uptake, rat brain slices” value [5] is listed as “inhibited” and the “adenosine uptake, guinea pig brain slices” value [6] is listed as “inhibited”. The “effects in dog hearts, ischemia and reperfusion” value [7] was “inconsistent effects”, the “body temperature in mice” value [8] was “hypothermia” and the “flaccidity and locomotor activity in mice” value [8] was “pronounced general flaccidity and much-reduced spontaneous locomotor activity”. For the same molecule, the “blood pressure and heart rate in anesthetized rats” value [9] was “decrease blood pressure and heart rate”.

With `NC[C@H]1O[C@@H](n2nc(Br)c3c(N)ncnc32)[C@H](O)[C@@H]1O` [GP-1-515] the IC50 (adenosine kinase) was 9 nM, the “survival in endotoxic shock” value (E. coli LPS endotoxemia [10]) was “dose-dependent increase in survival; also recorded: protecting against endotoxic shock” and the “mice surviving for 2 days” value (E. coli LPS endotoxemia [11]) was 50%. For the same molecule, the “survival after cecal ligation and puncture” value [12] was “improved survival”, the “plasma TNF-α levels” value (TNF-α) was “significantly decreased plasma TNF-α levels” and the “gas exchange, pulmonary function, blood gases” value ([13]; 0.3 μg/kg/min infusion) was “marked protection; also recorded: minimal changes in blood gases; also recorded: did not develop the hypoxemia, hypercapnia and acidosis exhibited in the control animals”. The pigs died ([13]; control 4/7) was 1/7, the blood pressure ([13]; versus control) was “Blood pressures were similar in the treated and control groups” and the heart rate ([13]; versus control) was “the control group,, required a significantly higher heart rate; also recorded: lower heart rates than control animals”. The “other hemodynamic parameters, including pulmonary flow and pulmonary vascular resistance” value ([13]; versus untreated) was “either not different or modestly improved”, the “mice with positive mesenteric lymph node cultures” value (bacterial translocation; 0.1 mg/kg i.p. twice, 48 hours, control 52%, p<0.05) was 32% and the “bacterial translocation” value (bacterial translocation; after a severe burn (or pancreatitis)) was “significantly decreased; also recorded: significantly reduce bacterial translocation”.
